Ten compounds from ChEMBL document CHEMBL1201862, “PubChem BioAssay data set” (2004) can be followed below.

Among the test systems are NCI/ADR-RES; NCI-H522; SN12C; PC-3; IGROV-1; CCRF-CEM; Hs-578T; HCT-116; 786-0; MDA-MB-435; UO-31; SF-268; HCC 2998; NCI-H460; MDA-MB-231; OVCAR-4; A549; SNB-19; Malme-3M; HOP-62.
Holding throughout (test): NCI tumour cell line growth inhibition, 48 h

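Results reflect a 48-hour exposure of cells in 96-well plates to compound at five concentrations. GI50 = concentration required for 50% inhibition of growth.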 The source made the active and inactive calls. Rule as the data show it: active = GI50 up to about 1.1 µM and inactive = higher.

Regarding `C=C1C(=O)[C@@]23CC[C@@H]4[C@@]5(C)CCC[C@@]4(OC5=O)[C@@]2(C)CC[C@@H]1C3`, the GI50 in the experiment with NCI/ADR-RES was 3.08 µM (inactive); with NCI-H522, 0.497 µM (active); with SN12C it was 3.3 µM (inactive); in the experiment with PC-3, 1.76 µM (inactive); in the experiment on IGROV-1 it was 1.72 µM (inactive); with CCRF-CEM, 0.303 µM (active). The GI50 with Hs-578T was 1.93 µM (inactive); in the experiment on HCT-116, 1.13 µM (inactive); in the experiment with 786-0, 0.565 µM (active); in the experiment with MDA-MB-435, 1.83 µM (inactive); in the experiment with UO-31, 1.9 µM (inactive); in the experiment with SF-268, 1.72 µM (inactive). Moreover, the GI50 with HCC 2998 is 2.19 µM (inactive); with NCI-H460 it was 1.41 µM (inactive); with MDA-MB-231 it was 1.73 µM (inactive); with OVCAR-4, 2.38 µM (inactive); with A549, 3.28 µM (inactive); with SNB-19, 3.23 µM (inactive). In addition, the GI50 is 1.6 µM (inactive) in the experiment on Malme-3M and 2.84 µM (inactive) in the experiment with HOP-62.

For `NNC(=O)CCC(NS(=O)(=O)c1ccc(Cl)cc1)C(=O)NN` (centres undefined), the GI50 in the experiment on NCI/ADR-RES, with NCI-H522, in the experiment with SN12C, in the experiment on PC-3, in the experiment on IGROV-1 and in the experiment with CCRF-CEM was > 100 µM (inactive) in each case. In addition, the GI50 in the experiment on Hs-578T, with HCT-116, in the experiment with 786-0, with MDA-MB-435, in the experiment with UO-31 and in the experiment with SF-268 was > 100 µM (inactive) in each case. The GI50 in the experiment on HCC 2998, in the experiment on NCI-H460, in the experiment with MDA-MB-231, in the experiment on OVCAR-4, in the experiment on A549 and with SNB-19 was > 100 µM (inactive) throughout. Also, the GI50 in the experiment on Malme-3M and with HOP-62 was > 100 µM (inactive) each time.

Turning to `O=C1C(NCCc2cc(Br)c(O)c(Br)c2)=CC(=O)c2ncccc21`, the GI50 in the experiment on NCI/ADR-RES is 9.2 µM (inactive); in the experiment on NCI-H522 it was 3.17 µM (inactive); in the experiment on SN12C, 3.8 µM (inactive); in the experiment with PC-3 it was 20.9 µM (inactive); with IGROV-1, 4.15 µM (inactive); with CCRF-CEM, 3.39 µM (inactive). Also, the GI50 in the experiment on Hs-578T is 3.1 µM (inactive); in the experiment on HCT-116, 3.71 µM (inactive); in the experiment on 786-0, 7.29 µM (inactive); in the experiment on MDA-MB-435, 1.69 µM (inactive); with UO-31, 5.87 µM (inactive); with SF-268, 8.32 µM (inactive). Further, the GI50 with HCC 2998 is 6.58 µM (inactive); in the experiment on NCI-H460, 2.37 µM (inactive); with MDA-MB-231 it was 10.2 µM (inactive); in the experiment on OVCAR-4, 6 µM (inactive); with A549, 3.52 µM (inactive); with SNB-19, 3.86 µM (inactive). The values for the GI50 in the experiment on Malme-3M and in the experiment on HOP-62 were 1.26 µM (inactive) and 3.28 µM (inactive), respectively.

For the compound `Fc1ccc(C(OCCN2CC3CC2CN3CCCc2ccccc2)c2ccc(F)cc2)cc1` (centres undefined), the GI50 in the experiment on NCI/ADR-RES was 5.64 µM (inactive); in the experiment with NCI-H522, 7.98 µM (inactive); in the experiment with SN12C it was 10.3 µM (inactive); in the experiment on PC-3, 5.98 µM (inactive); in the experiment on IGROV-1, 10.1 µM (inactive); in the experiment on CCRF-CEM, 4.52 µM (inactive). Also, the GI50 was 10.1 µM (inactive) in the experiment on Hs-578T; 5.86 µM (inactive) in the experiment on HCT-116; 5.53 µM (inactive) in the experiment with 786-0; 5.3 µM (inactive) with MDA-MB-435; 12.3 µM (inactive) in the experiment with UO-31; 10.2 µM (inactive) in the experiment with SF-268. Further, the GI50 is 2.38 µM (inactive) with HCC 2998; 4.48 µM (inactive) in the experiment with NCI-H460; 4.61 µM (inactive) in the experiment with MDA-MB-231; 8.95 µM (inactive) in the experiment on OVCAR-4; 12 µM (inactive) in the experiment on A549; 13.3 µM (inactive) in the experiment with SNB-19. Also, the GI50 in the experiment on Malme-3M is 2.93 µM (inactive); with HOP-62, 11.4 µM (inactive).

For `Cn1cccc1-c1ccc(-c2ccc(CO)[se]2)[se]1`, the GI50 with NCI/ADR-RES was 22.8 µM (inactive); in the experiment with NCI-H522, 10.2 µM (inactive); in the experiment with SN12C it was 68.9 µM (inactive); with PC-3, 24.5 µM (inactive); in the experiment with IGROV-1, 0.582 µM (active); in the experiment with CCRF-CEM, 11.5 µM (inactive). Moreover, the GI50 in the experiment with Hs-578T is 22.7 µM (inactive); in the experiment with HCT-116, 6.34 µM (inactive); in the experiment with 786-0, 14.2 µM (inactive); with MDA-MB-435, 4.91 µM (inactive); in the experiment with UO-31, 35.7 µM (inactive); with SF-268 it was 44.7 µM (inactive). Further, the GI50 is 2.02 µM (inactive) with HCC 2998; 10.9 µM (inactive) with NCI-H460; 29.8 µM (inactive) in the experiment with MDA-MB-231; 2.61 µM (inactive) in the experiment on OVCAR-4; 15.2 µM (inactive) in the experiment with A549; 17.8 µM (inactive) with SNB-19. Moreover, the GI50 in the experiment with Malme-3M was 66.1 µM (inactive); in the experiment on HOP-62 it was 21.6 µM (inactive).

On to `CC(C)=CCOc1cc(NC(=S)c2ccsc2C)ccc1Cl`, for which the GI50 with NCI/ADR-RES is 80.4 µM (inactive); in the experiment with NCI-H522, 54.5 µM (inactive); in the experiment on SN12C, 19 µM (inactive); with PC-3, 17.8 µM (inactive); with IGROV-1, 4.43 µM (inactive); in the experiment on CCRF-CEM, 39.6 µM (inactive). Moreover, the GI50 in the experiment on Hs-578T is 12.3 µM (inactive); in the experiment on HCT-116, 26.4 µM (inactive); with 786-0, 40.2 µM (inactive); in the experiment with MDA-MB-435, > 100 µM (inactive); in the experiment with UO-31, 5.85 µM (inactive); with SF-268, 32.3 µM (inactive). Also, the GI50 is 3.49 µM (inactive) in the experiment on HCC 2998; 12.4 µM (inactive) with NCI-H460; 13.1 µM (inactive) in the experiment on MDA-MB-231; 16.7 µM (inactive) with OVCAR-4; 46.7 µM (inactive) in the experiment on A549; 31.8 µM (inactive) with SNB-19. Further, the GI50 in the experiment on Malme-3M was 49 µM (inactive); in the experiment with HOP-62 it was 21.4 µM (inactive).

As to `COc1ccc(/N=N/C(=N/NC(=O)c2ccccc2)c2ccc(N(CCC#N)CCC#N)cc2C)cc1`, the GI50 with NCI/ADR-RES was > 100 µM (inactive); with NCI-H522, 10.7 µM (inactive); in the experiment with SN12C, 56.1 µM (inactive); in the experiment on PC-3, 19.1 µM (inactive); with IGROV-1, 42.8 µM (inactive); in the experiment on CCRF-CEM, 36.7 µM (inactive). Further, the GI50 with Hs-578T was 23.4 µM (inactive); in the experiment on HCT-116, 29.9 µM (inactive); in the experiment on 786-0 it was 47.5 µM (inactive); with MDA-MB-435, 5.43 µM (inactive); in the experiment on UO-31, 52 µM (inactive); in the experiment with SF-268, 58.2 µM (inactive). Besides, the GI50 with HCC 2998 is 12.4 µM (inactive); with NCI-H460, 23.1 µM (inactive); in the experiment with MDA-MB-231, 50.9 µM (inactive); with OVCAR-4, > 100 µM (inactive); in the experiment with A549, 38.2 µM (inactive); in the experiment on SNB-19, 50.9 µM (inactive). Moreover, the GI50 in the experiment on Malme-3M is 48 µM (inactive); with HOP-62, 51.6 µM (inactive).

As to `CCN(CC)CCC(=O)/C=C/c1ccccc1`, the GI50 in the experiment on NCI/ADR-RES is 17.5 µM (inactive); in the experiment on NCI-H522, 4.51 µM (inactive); in the experiment on SN12C, 15.5 µM (inactive); in the experiment with PC-3, 12.8 µM (inactive); with IGROV-1, 17.5 µM (inactive); in the experiment on CCRF-CEM, 3.57 µM (inactive). The GI50 is 14 µM (inactive) in the experiment with Hs-578T; 7.87 µM (inactive) in the experiment on HCT-116; 2.67 µM (inactive) with 786-0; 11 µM (inactive) in the experiment on MDA-MB-435; 13.1 µM (inactive) in the experiment on UO-31; 10.3 µM (inactive) in the experiment with SF-268. Further, the GI50 in the experiment on HCC 2998 was 19.5 µM (inactive); in the experiment on NCI-H460, 12.1 µM (inactive); in the experiment on MDA-MB-231 it was 15.5 µM (inactive); in the experiment on OVCAR-4, 21.1 µM (inactive); with A549 it was 19 µM (inactive); in the experiment with SNB-19, 18.1 µM (inactive). Also, the GI50 in the experiment with Malme-3M was 15.9 µM (inactive); in the experiment on HOP-62 it was 20.3 µM (inactive).

Consider `O=C(/C=C/c1ccccc1)CCN1CCCCC1`, for which the GI50 is 38.8 µM (inactive) with NCI/ADR-RES; 21.4 µM (inactive) in the experiment on NCI-H522; 20.3 µM (inactive) with SN12C; 52.7 µM (inactive) in the experiment with PC-3; 43.1 µM (inactive) in the experiment on IGROV-1; 39.4 µM (inactive) in the experiment on CCRF-CEM. Further, the GI50 is 30.9 µM (inactive) in the experiment with Hs-578T; 17.4 µM (inactive) in the experiment with HCT-116; 20.5 µM (inactive) in the experiment with 786-0; 28.2 µM (inactive) with MDA-MB-435; 34.9 µM (inactive) in the experiment on UO-31; 42.5 µM (inactive) in the experiment on SF-268. Besides, the GI50 in the experiment on HCC 2998 was > 100 µM (inactive); with NCI-H460, 40.7 µM (inactive); in the experiment on MDA-MB-231, 26 µM (inactive); in the experiment on OVCAR-4, 53 µM (inactive); in the experiment with A549, 54.1 µM (inactive); in the experiment with SNB-19, > 100 µM (inactive). For the same compound, the GI50 in the experiment with Malme-3M and in the experiment with HOP-62 was > 100 µM (inactive) throughout.

For `O=c1cc(N2CCCC2)[nH]c(=O)n1-c1ccc(Cl)cc1`, the GI50 with NCI/ADR-RES, in the experiment on NCI-H522, in the experiment with SN12C, in the experiment on PC-3, in the experiment with IGROV-1 and in the experiment on CCRF-CEM was > 100 µM (inactive) each time. Moreover, the GI50 in the experiment with Hs-578T, in the experiment with HCT-116, in the experiment with 786-0, in the experiment on MDA-MB-435, in the experiment with SF-268 and in the experiment with HCC 2998 was > 100 µM (inactive) each time. For the same compound, the GI50 in the experiment on NCI-H460, in the experiment on MDA-MB-231, with OVCAR-4, in the experiment on A549, in the experiment on SNB-19 and with Malme-3M was > 100 µM (inactive) each time. Moreover, the GI50 in the experiment with HOP-62 was > 100 µM (inactive).
